According to the supplement of paper PMC11061612:

Legend:
Test in all cases: combination Emax (second highest fraction inhibited in the dose matrix, 72 h); higher = more inhibition; extreme values may be limits of the assay
UACC-62 (Melanoma) = system: UACC-62 (Melanoma)
Method in brief: (§1)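 Cell lines in DMEM/F12 or RPMI with 10% FBS were plated in 1536-well plates, held 24 hours at 37°C, 5% CO2, then given two-drug dose matrices for 72 hours (DMSO typically 0.2%). Viability was read by CellTiter-Glo 2.0 luminescence and scaled as inhibition from 0 (vehicle wells) to 1 (blank wells). Combination Emax is the second-highest inhibition in the matrix; Bliss excess is observed combination effect minus expected EA + EB − EA·EB, EA and EB being single-agent effects.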

[1] = system: EoL-1-cell (Acute Myeloid Leukemia)
Method in brief: as §1

[2] = system: KYSE-450 (Esophageal Squamous Cell Carcinoma)
Method in brief: as §1

[3] = system: SW13 (Other Solid Carcinomas)
Method in brief: as §1

[4] = system: AMO-1 (Plasma Cell Myeloma)
Method in brief: as §1

EW-24 (Ewing's Sarcoma) = system: EW-24 (Ewing's Sarcoma)
Method in brief: as §1

[5] = system: NCI-H358 (Lung Adenocarcinoma)
Method in brief: as §1

[6] = system: LU-65 (Non-Small Cell Lung Carcinoma)
Method in brief: as §1

[7] = system: KARPAS-299 (T-Cell Non-Hodgkin's Lymphoma)
Method in brief: as §1

[8] = system: Hs-766T (Pancreatic Carcinoma)
Method in brief: as §1

| SMILES | combination Emax (UACC-62 (Melanoma)) | combination Emax [1] | combination Emax [2] | combination Emax [3] | combination Emax [4] | combination Emax (EW-24 (Ewing's Sarcoma)) | combination Emax [5] | combination Emax [6] | combination Emax [7] | combination Emax [8] |
| --- | --- | --- | --- | --- | --- | --- | --- | --- | --- | --- |
| O=C(c1cc(Cc2n[nH]c(=O)c3ccccc23)ccc1F)N1CCN(C(=O)C2CC2)CC1 [Olaparib] + CC1(C)CCC(CN2CCN(c3ccc(C(=O)NS(=O)(=O)c4ccc(NCC5CCOCC5)c([N+](=O)[O-])c4)c(Oc4cnc5[nH]ccc5c4)c3)CC2)=C(c2ccc(Cl)cc2)C1 [Venetoclax] (first compound max 10 µM, 7x7, partner max 1 µM) | 0.213 | 0.99 | 0.0027 | 0.213 | 0.333 | 0.195 | 0.133 | 0.164 | 0.306 | 0.135 |
| Cc1c2c(nn1C)CSCc1cc(n(C)n1)CSc1cc(c3ccccc3c1)OCCCc1c(C(=O)O)n(C)c3c-2c(Cl)ccc13 [AZD5991] + CC(=O)O[C@H]1C(=O)[C@@]2(C)[C@H]([C@H](OC(=O)c3ccccc3)[C@]3(O)C[C@H](OC(=O)[C@H](O)[C@@H](NC(=O)c4ccccc4)c4ccccc4)C(C)=C1C3(C)C)[C@]1(OC(C)=O)CO[C@@H]1C[C@@H]2O [Paclitaxel] (first compound max 1 µM, 7x7, partner max 3 µM) | 0.831 | 1 | 0.847 | 1 | 1 | 0.734 | 0.818 | 0.752 | 1 | 0.304 |
| O=C(c1cc(Cc2n[nH]c(=O)c3ccccc23)ccc1F)N1CCN(C(=O)C2CC2)CC1 [Olaparib] + COc1nnc2ccc(N3CCC(c4ccc(OCCN5CCN(C)C(=O)[C@H]5C)cc4)CC3)nn12 [AZD5153] (first compound max 10 µM, 7x7, partner max 1 µM) | 0.491 | 0.97 | 0.235 | 0.309 | 0.882 | 0.639 | 0.295 | 0.49 | 0.774 | 0.396 |
| C[C@@H](Oc1cc(-c2cnn(C3CCNCC3)c2)cnc1N)c1c(Cl)ccc(F)c1Cl [Crizotinib] + CC1=C(C(=CC=C1)Cl)NC(=O)C2=CN=C(S2)NC3=CC(=NC(=N3)C)N4CCN(CC4)CCO [Dasatinib] (first compound max 10 µM, 7x7, partner max 2 µM) | 0.345 | 1 | 0.567 | 0.736 | 0.954 | 0.738 | 0.607 | 0.852 | 0.888 | 0.533 |
| C=CCn1c(=O)c2cnc(Nc3ccc(N4CCN(C)CC4)cc3)nc2n1-c1cccc(C(C)(C)O)n1 [AZD1775] + CCc1c2c(nc3ccc(O)cc13)-c1cc3c(c(=O)n1C2)COC(=O)[C@]3(O)CC [SN-38] (first compound max 1 µM, partner max 0.3 µM) | 0.745 | 1 | 0.951 | 0.964 | 0.974 | 0.782 | 0.687 | 0.944 | 0.971 | 0.537 |
| C[C@@H](Oc1cc(-c2cnn(C3CCNCC3)c2)cnc1N)c1c(Cl)ccc(F)c1Cl [Crizotinib] + Cn1cnc2c(F)c(Nc3ccc(Br)cc3Cl)c(C(=O)NOCCO)cc21 [Selumetinib] (first compound max 10 µM, 7x7, partner max 10 µM) | 0.782 | 1 | 0.381 | 0.522 | 0.999 | 0.545 | 0.587 | 0.974 | 0.895 | 0.516 |
| Cc1c2c(nn1C)CSCc1cc(n(C)n1)CSc1cc(c3ccccc3c1)OCCCc1c(C(=O)O)n(C)c3c-2c(Cl)ccc13 [AZD5991] + CS(=O)(=O)CCNCc1ccc(-c2ccc3ncnc(Nc4ccc(OCc5cccc(F)c5)c(Cl)c4)c3c2)o1 [Lapatinib] (first compound max 1 µM, 7x7, partner max 10 µM) | 0.576 | 1 | 0.541 | 0.973 | 1 | 0.32 | 0.478 | 0.332 | 0.952 | 0.188 |
| C[C@@H](Nc1cc(F)cc(F)c1)c1cc(C(=O)N(C)C)cc2c(=O)cc(N3CCOCC3)oc12 [AZD8186] + CC(=O)c1c(C)c2cnc(Nc3ccc(N4CCNCC4)cn3)nc2n(C2CCCC2)c1=O [Palbociclib] (first compound max 10 µM, 7x7, partner max 10 µM) | 0.51 | 0.551 | 0.378 | 0.316 | 0.673 | 0.563 | 0.398 | 0.312 | 0.345 | 0.441 |
| Cc1nc(-c2cn3c(n2)-c2ccc(-c4cnn(C(C)(C)C(N)=O)c4)cc2OCC3)n(C(C)C)n1 [Taselisib] + O=C(Nc1ccc2[nH]nc(-c3ccncc3)c2c1)[C@@H]1CCN(CC(=O)N2CCN(c3ccc(-c4ncccn4)cc3)CC2)C1 [SCH772984] (first compound max 10 µM, 7x7, partner max 5 µM) | 0.955 | 1 | 0.725 | 0.894 | 0.761 | 0.602 | 0.798 | 0.991 | 0.413 | 0.676 |
| C=CCn1c(=O)c2cnc(Nc3ccc(N4CCN(C)CC4)cc3)nc2n1-c1cccc(C(C)(C)O)n1 [AZD1775] + Nc1ccn([C@@H]2O[C@H](CO)[C@@H](O)C2(F)F)c(=O)n1 [Gemcitabine] (first compound max 1 µM, partner max 0.3 µM) | 0.73 | 1 | 0.875 | 0.928 | 0.959 | 0.658 | 0.516 | 0.848 | 0.976 | 0.42 |
| C[C@@H](Nc1cc(F)cc(F)c1)c1cc(C(=O)N(C)C)cc2c(=O)cc(N3CCOCC3)oc12 [AZD8186] + C1CN(CCC1(C(=O)N[C@@H](CCO)C2=CC=C(C=C2)Cl)N)C3=NC=NC4=C3C=CN4 [AZD5363] (first compound max 10 µM, 7x7, partner max 10 µM) | 0.514 | 0.816 | 0.31 | 0.251 | 0.506 | 0.447 | 0.33 | 0.615 | 0.263 | 0.336 |
| CC1(C)CCC(CN2CCN(c3ccc(C(=O)NS(=O)(=O)c4ccc(NCC5CCOCC5)c([N+](=O)[O-])c4)c(Oc4cnc5[nH]ccc5c4)c3)CC2)=C(c2ccc(Cl)cc2)C1 [Venetoclax] + CS(=O)(=O)CCNCc1ccc(-c2ccc3ncnc(Nc4ccc(OCc5cccc(F)c5)c(Cl)c4)c3c2)o1 [Lapatinib] (first compound max 1 µM, 7x7, partner max 10 µM) | 0.256 | 0.986 | 0.34 | 0.549 | 0.882 | 0.245 | 0.431 | 0.207 | 0.337 | 0.208 |
| CN(CCO)CC[C@H](CSc1ccccc1)Nc1ccc(S(=O)(=O)NC(=O)c2ccc(N3CCC([C@@H](O)c4ccccc4-c4ccc(Cl)cc4)CC3)cc2)cc1S(=O)(=O)C(F)(F)F [AZD4320] + CS(=O)(=O)CCNCc1ccc(-c2ccc3ncnc(Nc4ccc(OCc5cccc(F)c5)c(Cl)c4)c3c2)o1 [Lapatinib] (first compound max 1 µM, 7x7, partner max 10 µM) | 0.362 | 1 | 0.41 | 0.804 | 0.926 | 0.931 | 0.629 | 0.368 | 0.204 | 0.435 |
| C[C@@H]1COCCN1c1cc(C2([S@](C)(=N)=O)CC2)nc(-c2ccnc3[nH]ccc23)n1 [AZD6738] + Nc1ccn([C@@H]2O[C@H](CO)[C@@H](O)C2(F)F)c(=O)n1 [Gemcitabine] (first compound max 10 µM, 7x7, partner max 0.3 µM) | 0.757 | 1 | 0.862 | 0.932 | 0.967 | 0.8 | 0.733 | 0.848 | 0.997 | 0.505 |
| CS(=O)(=O)CCNCc1ccc(-c2ccc3ncnc(Nc4ccc(OCc5cccc(F)c5)c(Cl)c4)c3c2)o1 [Lapatinib] + Cn1cnc2c(F)c(Nc3ccc(Br)cc3Cl)c(C(=O)NOCCO)cc21 [Selumetinib] (first compound max 10 µM, 7x7, partner max 10 µM) | 0.831 | 0.832 | 0.41 | 0.687 | 0.894 | 0.222 | 0.621 | 0.701 | 0.446 | 0.582 |
| O=C(c1cc(Cc2n[nH]c(=O)c3ccccc23)ccc1F)N1CCN(C(=O)C2CC2)CC1 [Olaparib] + CN(CC[C@H](CSC1=CC=CC=C1)NC2=C(C=C(C=C2)S(=O)(=O)NC(=O)C3=CC=C(C=C3)N4CCC(CC4)[C@H](C5=CC=CC=C5C6=CC=C(C=C6)Cl)O)S(=O)(=O)C(F)(F)F)CCO [AZD4320] (first compound max 10 µM, 7x7, partner max 1 µM) | 0.198 | 1 | 0.0781 | 0.184 | 0.424 | 0.606 | 0.182 | 0.194 | 0.432 | 0.219 |
| C[C@@H]1COCCN1c1cc(C2([S@](C)(=N)=O)CC2)nc(-c2ccnc3[nH]ccc23)n1 [AZD6738] + C1CC(C1)(C(=O)[O-])C(=O)[O-].N.N.[Pt+2] [Carboplatin] (first compound max 10 µM, 7x7, partner max 10 µM) | 0.246 | 0.97 | 0.312 | 0.344 | 0.88 | 0.703 | 0.505 | 0.703 | 0.926 | 0.442 |
| Cc1c2c(nn1C)CSCc1cc(n(C)n1)CSc1cc(c3ccccc3c1)OCCCc1c(C(=O)O)n(C)c3c-2c(Cl)ccc13 [AZD5991] + Nc1ccn([C@@H]2O[C@H](CO)[C@@H](O)C2(F)F)c(=O)n1 [Gemcitabine] (first compound max 1 µM, 7x7, partner max 0.3 µM) | 0.753 | 1 | 0.459 | 0.981 | 1 | 0.672 | 0.381 | 0.627 | 0.979 | 0.332 |
| O=C(c1cc(Cc2n[nH]c(=O)c3ccccc23)ccc1F)N1CCN(C(=O)C2CC2)CC1 [Olaparib] + Cc1c2c(nn1C)CSCc1cc(n(C)n1)CSc1cc(c3ccccc3c1)OCCCc1c(C(=O)O)n(C)c3c-2c(Cl)ccc13 [AZD5991] (first compound max 10 µM, 7x7, partner max 1 µM) | 0.568 | 1 | 0.0895 | 0.763 | 1 | 0.193 | 0.197 | 0.2 | 0.931 | 0.0824 |
